Data reported in patent US7645881B2, “Methods for treating hepatitis C” (PTC Therapeutics, Inc., priority 2004, dated 2010).

What was measured:
[1] = tested on: wild-type poliovirus (WT-PV); assay type: cell-based; settings: HeLa cells, MOI 0.1, compound for one day, decrease of cytopathic effect
[2] = tested on: HCV replicon; assay: microbe, parasite or virus in culture; assay type: cell-based; settings: Hepatitis C virus, 48 h, read-out: Replicon IC50s μM
[3] = tested on: cap-dependent translation; assay: Western blot of Fluc protein in pLuc cells (cap-dependent translation); assay type: cell-based, human; settings: 20 hours, data not shown

Row | Compound | WTPV CPE (1.2 μM) ([1]; 1.2 μM) | WTPV CPE (11.1 μM) ([1]; 11.1 μM) | WTPV CPE (100 μM) ([1]; 100 μM) | IC50 [2] [µM] | melting point [°C] | cap-dependent protein production (luciferase reporter protein level, Western blot) [3]
1 | CCc1c(C)nc2sc(N)c(C#N)c2c1C [Compound 35, 2-amino-5-ethyl-4,6-dimethylthieno[2,3-b]pyridine-3-carbonitrile] | 0 | 1 (A “1” in the WT-PV CPE columns indicates that the CPE (cytopathic effect) is decreased by 20-50%.) | 2 (A “2” in the WT-PV CPE columns indicates that the CPE is decreased by 50-75%.) | > 2 | 223 to 225 | 
2 | COc1ccc(C[C@H](N)C(=O)N[C@H]2[C@@H](O)[C@H](n3cnc4c(N(C)C)ncnc43)O[C@@H]2CO)cc1 [puromycin] |  |  |  |  |  | inhibited
